Reference: US20060216363A1, “Novel herbal composition” (priority 2005, published 2006)

What was measured:
[1] = Free radical scavenger, SOD mimetic activity (xanthine/xanthine oxidase/NBT); assay type: biochemical; settings: reference agents; read-out: Concentration at 50 % Inhibition
Procedure: Conversion of xanthine to uric acid+O^−+NBT to formazan was then determined by measurement of absorbance at 595 nm and percent inhibition by superoxide dismutase or test compound was calculated.

[2] = test system: chondrocyte; settings: Okazaki M, Osteoarthritis Cartilage 2003; cited from earlier work
[3] = test system: chondrocytes; assay: Nitric oxide determination (Griess) after fluid induced shear stress; assay type: cell-based, human; settings: for NO Concentration: pretreated two weeks, 0.01 mg/ml or glucosamine 1 mM
[4] = test system: bone marrow mesenchymal stem cells; assay: Micromass culture of bone marrow mesenchymal stem cells, staining for ALP, collagen and GAGs; assay type: cell-based, human; settings: 1 mM
Procedure: Herbal preparations were treated to cells grown in the induction medium in micromass culture for two weeks.
Human bone marrow mesenchymal stem cells were obtained from patients receiving total joint replacement with consent. The cells were cultured in DMEM containing 10% fetal calf serum (FCS), and 25 ug/ml Gentamicin (Gibco, Grand Island, N.Y.) (C-DMEM) at 37° C. under humidified atmosphere containing 5% CO2.
(§1) Ten ul of 1×10^7 cells in C-DMEM was seeded into the center of each well of 48 multiwell culture dish (Nunc, Roskilde, Danmark). Two hours later, 250 ul of F12/DMEM containing 5% FCS, 6.25 ug/ml bovine insulin, 25 ug/ml ascorbic acid and 100 nM Dexamethasone (induction medium) with various concentrations of herbal combinations or glucosamine (Sigma) was added. The media were changed twice a week for two weeks. At the end of the incubation, the media were changed with fresh DMEM. Twenty-four hours later, the media were collected for MMP zymography study and cells were fixed and stained for alkaline phosphatase (ALP), collagen or glycosaminoglycan using Naphthol AS-MX phosphate/Fast red, Sirius red, or Safranin O (Sigma), respectively.

[5] = test system: chondrocytes; assay: Micromass culture of chondrocytes, herbal preparations in combination with glucosamine; assay type: cell-based, human
Procedure: Expression was measured on micromass culture after cells grown for two weeks. Induction medium alone (left); with 0.1 mM glucosamine (middle); with 1 mM glucosamine (right). […] All the preparations were at 0.01 mg/ml. Row A, B: alkaline phosphatase (ALP) stained by Naphthol AS-MX phosphate/Fast red; row C, D: collagen stained by Sirius red; row E, F: glycosaminoglycans stained by Safranin O.
(§2) Human articular cartilage was obtained from patients who received total joint replacement with consent. The cartilage was digested with 1 mg/ml of Class 2 and Class 4 bacterial collagenase (Worthington Chemical, Freehold, N.J.) in DMEM containing 10% fetal calf serum (FCS) and 25 ug/ml Gentamicin (Gibco, Grand Island, N.Y.) (C-DMEM) at 37° C. overnight. The primary cells were plated at high density in 10 mm culture dish (Nunc, Roskilde, Danmark) in C-DMEM and cultured under humidified atmosphere containing 5% CO2 at 37° C.
as §1

[6] = test system: MMP-2; assay: MMP-2 activities of chondrocyte culture supernatants by zymography; assay type: cell-based, human
Procedure: Confluent cells were treated with various herbal combinations in F12/DMEM containing 5% FCS, 6.25 ug/ml bovine insulin, 25 ug/ml ascorbic acid and 100 nM Dexamethasone for 2 weeks with medium changed twice a week. At the end of each treatment, cells were washed with PBS and incubated in DMEM overnight. Cells were then exposed to fluid-induced shear stress by a custom-made cone viscometer at the rate of 100 rpm for 2 hours. The shear stress induced at this speed was 0.82 Pa (8.2 dyn/cm^2). Aliquots of culture medium were collected at designated time for nitric oxide measurement and MMP zymography analysis. Another set of cells was treated similarly without shearing as the control.
Equal amount of protein of each culture medium was mixed with equal volume of 2× non-reducing SDS sample buffer, and incubated at room temperature for two hours for sample to denature. The samples were loaded into each well of a 10% SDS polyacrylamide gel containing 1 mg/ml of bovine gelatin (Sigma), and run at 20 mA in ice bath by a BioRad Mini Protean gel apparatus. After dye front reached the bottom of the gel, the gel was washed three times, 15 minutes each, with 2.5% Triton X-100. Then, the gel was renatured in developing buffer (50 mM Tris-HCl, pH7.6, 10 mM CaCl2, 50 mM NaCl, 0.05% Brij35) at 37° C. for 48 hours. […]

[7] = test system: chondrocytes; assay: Gene expressions (RT-PCR) of shear-stressed vs. non-shear-stressed chondrocytes; assay type: cell-based, human; settings: for Col I expression: glucosamine 1 mM
Procedure: Confluent cells were treated with various herbal combinations in F12/DMEM containing 5% FCS, 6.25 ug/ml bovine insulin, 25 ug/ml ascorbic acid and 100 nM Dexamethasone for 2 weeks with medium changed twice a week. At the end of each treatment, cells were washed with PBS and incubated in DMEM overnight. Cells were then exposed to fluid-induced shear stress by a custom-made cone viscometer at the rate of 100 rpm for 2 hours. The shear stress induced at this speed was 0.82 Pa (8.2 dyn/cm^2). […] Another set of cells was treated similarly without shearing as the control. The cells were washed with PBS, and RNA was extracted by Tri-Reagent (Sigma).
The RNA of cells was extracted with Tri-Reagent (Sigma). 800 ng of total RNA was reverse transcribed by Omniscript reverse transcriptase (Qiagen, Valencia, Calif.) in buffer containing 1 uM random primer, 0.5 mM each of dNTP, and 10 units of ribonuclease inhibitor. Reverse transcription was carried out at 37° C. for one hour by a programmable thermal controller (PTC-100, MJ Research, Inc., Watertown, Mass.). Reaction was terminated by raising the temperature to 93° C. for five minutes.
PCR was performed in a thermal controller (PTC-100, MJ Research, Inc., Watertown, Mass.) with master mix (HotStarTaq DNA polymerase, Qiagen) at initial denaturation at 95° C. for 15 minutes, followed by 25 cycles of 94° C. for 1 minute, 58° C. for 40 seconds, and 72° C. for 40 seconds. The final cycle extended 72° C. for 10 minutes. The PCR products accompanied by 100 bp ET marker were separated by 1.2% agarose gel, stained with ethidium bromide and visualized under UV light. A Polaroid picture was taken by Foto/Phoresis UV documentation system (Fotodyne Inc.). Beta-actin expression under the same experimental conditions was used as a reference to normalize the expressions.

[8] = test system: TIMP; assay: TIMP activities of chondrocyte culture supernatants by reverse zymography; assay type: cell-based, human; settings: non-sheared
Procedure: Confluent cells were treated with various herbal combinations in F12/DMEM containing 5% FCS, 6.25 ug/ml bovine insulin, 25 ug/ml ascorbic acid and 100 nM Dexamethasone for 2 weeks with medium changed twice a week. At the end of each treatment, cells were washed with PBS and incubated in DMEM overnight. Cells were then exposed to fluid-induced shear stress by a custom-made cone viscometer at the rate of 100 rpm for 2 hours. The shear stress induced at this speed was 0.82 Pa (8.2 dyn/cm^2). […] Another set of cells was treated similarly without shearing as the control.
Equal amount of protein of each culture medium was mixed with equal volume of 2× non-reducing SDS sample buffer, and incubated at room temperature for two hours for sample to denature. The samples were loaded into each well of a 10% SDS polyacrylamide gel containing 1 mg/ml of bovine gelatin (Sigma) and 1 ml serum free 24 hour's culture supernatant of human foreskin dermal fibroblast which expressed MMP, and run at 20 mA in ice bath by a BioRad Mini Protean gel apparatus. After dye front reached the bottom of the gel, the gel was washed three times, 15 minutes each, with 2.5% Triton X-100. Then, the gel was renatured in developing buffer (50 mM Tris-HCl, pH7.6, 10 mM CaCl2, 50 mM NaCl, 0.05% Brij35) at 37° C. for 48 hours. […]

[9] = test system: chondrocytes; assay: Micromass culture of chondrocytes, staining for ALP, collagen and GAGs; assay type: cell-based, human; settings: 1 mM, two weeks
Procedure: Cells were grown for two weeks before measuring. […] Row A, B: alkaline phosphatase (ALP) stained by Naphthol AS-MX phosphate/Fast red; row C, D: collagen stained by Sirius red; row E, F: glycosaminoglycan stained by Safranin O.
as §2, §1

[10] = molecular target: T1, MMP-3 (stromelysin-1, human recombinant catalytic domain) (Homo sapiens, UniProt P08254); assay: MMP-3 enzymatic assay; assay type: biochemical; settings: reference agents; read-out: Concentration at 50 % Inhibition
T1 construct: MMP-3 (stromelysin-1, human recombinant catalytic domain from Calbiochem Cat. 444217); purchased Calbiochem 444217
T1 sequence (P08254 100-272 limits assumed): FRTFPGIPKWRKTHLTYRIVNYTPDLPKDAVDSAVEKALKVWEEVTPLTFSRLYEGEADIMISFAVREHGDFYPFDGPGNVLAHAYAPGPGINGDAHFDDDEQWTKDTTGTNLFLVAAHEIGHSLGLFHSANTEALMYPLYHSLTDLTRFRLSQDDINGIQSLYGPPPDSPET
Procedure: MMP-3 (stromelysin-1, human recombinant catalytic domain from Calbiochem Cat. 444217) was activated by p-aminophenylmercuric acetate for 60 minutes at 37° C. […] Enzyme activity was determined spectrofluorometrically by measuring the formation of fluorescent (7-methoxycoumarin-4-yl)acetyl-Pro-Leu-Gly.

[11] = molecular target: T2, MMP-13 proenzyme (human recombinant) (Homo sapiens, UniProt P45452); assay: MMP-13 enzymatic assay; assay type: biochemical; settings: reference agents; read-out: Concentration at 50 % Inhibition
T2 construct: purchased Calbiochem 444248; host or cells: Sf9 cell
Procedure: MMP-13 proenzyme (human recombinant, expressed in Sf9 cell, Calbiochem Cat. 444248) was activated by p-aminophenylmercuric acetate for 60 minutes at 37° C. […] Enzyme activity was determined spectrofluorometrically by measuring the formation of fluorescent (7-methoxycoumarin-4-yl)acetyl-Pro-Leu-Gly.

[12] = molecular target: T3, MMP-8 (collagenase-2, stimulated human neutrophils) (Homo sapiens, UniProt P22894); assay: MMP-8 enzymatic assay; assay type: biochemical; settings: reference agents; read-out: Concentration at 50 % Inhibition
T3 construct: purchased Calbiochem 444229; host or cells: natural protein from stimulated human neutrophils
T3 sequence (P22894 101-467): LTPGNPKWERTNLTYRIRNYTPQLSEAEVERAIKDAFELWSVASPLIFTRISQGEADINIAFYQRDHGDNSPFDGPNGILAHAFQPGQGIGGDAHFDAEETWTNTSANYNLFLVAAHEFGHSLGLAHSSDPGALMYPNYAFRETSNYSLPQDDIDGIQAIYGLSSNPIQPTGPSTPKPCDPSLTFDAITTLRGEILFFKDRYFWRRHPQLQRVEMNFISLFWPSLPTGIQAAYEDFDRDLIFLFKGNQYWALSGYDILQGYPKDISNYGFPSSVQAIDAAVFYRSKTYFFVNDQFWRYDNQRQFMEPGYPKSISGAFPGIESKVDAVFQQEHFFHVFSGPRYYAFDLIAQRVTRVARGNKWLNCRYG
Procedure: MMP-8 (collagenase-2, stimulated human neutrophils, Calbiochem Cat. 444229) was activated by p-aminophenylmercuric acetate for 60 minutes at 37° C. […] Enzyme activity was determined spectrofluorometrically by measuring the formation of fluorescent (7-methoxycoumarin-4-yl) acetyl-Pro-Leu-Gly.

Question: For O=C(O[C@@H]1Cc2c(O)cc(O)cc2O[C@@H]1c1ccc(O)c(O)c1)c1cc(O)c(O)c(O)c1 [(−)-Epicatechin gallate], which IC50 [1] is on record?
Answer: The IC50 was 6.1 µM.

Question: With CCOC(CN1C(=O)[C@](CC(=O)Nc2ccc(C)cc2)(NC(=O)Nc2ccc(C)cc2)c2ccccc21)OCC [AG-041R] as the compound, how does the ALP activity [2] read?
Answer: The ALP activity was “suppressed ALP activity”.

Question: And the “expression of type II collagen, aggrecan and BMP-2 genes” value [2]?
Answer: Its value is “up-regulated”.

Question: And the proteoglycan synthesis [2]?
Answer: The proteoglycan synthesis was “accelerated proteoglycan synthesis”.

Question: Which results are given for N[C@H]1C(O)O[C@H](CO)[C@@H](O)[C@@H]1O (some centres unmarked) [glucosamine]?
Answer: NO Concentration ([3]; Non-sheared, 0 h): 0.40 µM; NO Concentration ([3]; Non-sheared, 2 h): 0.00 µM; NO Concentration ([3]; Non-sheared, 4 h): 0.00 µM; NO Concentration ([3]; Non-sheared, 7 h): 0.00 µM; NO Concentration ([3]; Non-sheared, 24 h): 0.00 µM; NO Concentration ([3]; Non-sheared, (2 h)): 0.17 µM; NO Concentration ([3]; Sheared, 0 h): 4.58 µM; NO Concentration ([3]; Sheared, 2 h): 4.75 µM; NO Concentration ([3]; Sheared, 4 h): 4.58 µM; NO Concentration ([3]; Sheared, 7 h): 4.42 µM; NO Concentration ([3]; Sheared, 24 h): 4.72 µM; NO Concentration ([3]; Sheared, (2 h)): 0.85 µM; inhibition of NO production ([3]; fluid induced shear stress 100 rpm (0.82 Pa), two hours): 55%; ALP [4]: did not show significant effects; GAGs synthesis [4]: did not show significant effects; collagen synthesis [4]: did not show significant effects; baseline GAG synthesis ([5]; 0.1 mM glucosamine): slightly increased; baseline collagen synthesis ([5]; 0.1 mM glucosamine): slightly increased; effect of glucosamine on the activity of herbal preparations ([5]; glucosamine 0.1 or 1 mM, preparations 0.01 mg/ml): did not affect the activity of herbal preparations; active and latent forms of MMP-2 (68 K, 72 K bands) ([6]; non-sheared): showed same profiles as controls; active and latent forms of MMP-2 (68 K, 72 K bands) ([6]; sheared): showed same profiles as controls; aggrecanase expression ([7]; non-shear-stressed): inhibited aggrecanase expression; expression of aggrecan ([7]; non-shear-stressed): inhibited the expression of aggrecan significantly; BMP-2 expression ([7]; non-sheared): inhibited its expression completely; Col I expression ([7]; non-sheared): inhibited Col I expression significantly; BMP-2 expression ([7]; shear-stressed): showed less activity; aggrecanase expression ([7]; shear-stressed): slight increase in aggrecanase expression; expression of aggrecan ([7]; shear-stressed): slightly increased aggrecan expression; MMP-2 expression ([7]; shear-stressed and non-shear-stressed): not to be affected; Col I expression ([7]; sheared): no effect; TIMP (41 K band, >118 K band) [8]: decrease of TIMP; ALP ([9]; Naphthol AS-MX phosphate/Fast red): did not show effects; GAGs ([9]; Safranin O): did not show effects; Collagen ([9]; Sirius red): did not show effects

Question: For “TIMP-1: tissue inhibitor of matrix metalloproteinase, comparison agent in the MMP assays”, which IC50 [10] is on record?
Answer: The IC50 was 7.6 nM.

Question: And the IC50 [11]?
Answer: Its IC50 is 6.8 nM.

Question: What about the IC50 [12] of the same compound?
Answer: Its IC50 is 3.9 nM.
